Measured values published in patent US20260008787A1, “FUSED RING KRAS INHIBITORS FOR TREATING DISEASE” (BLOSSOMHILL THERAPEUTICS, INC., priority 2022, published 2026).

Legend:
GP2D (KRAS G12D) = assay: Cell proliferation assay (CellTiter-Glo, 72 hours), GP2D; assay type: cell-based; settings: GP2d, 72 h, 384-well, CellTiter-Glo 2.0
Description: (§1) Two thousand KRAS mutant cells per well were seeded in 384-well white plate and then treated with indicated compounds for 72 hours at 37° C. and 5% CO2. Cell proliferation was measured using CellTiter-Glo 2.0 luciferase-based ATP detection assay (Promega, Madison, WI) following the manufacturer's protocol. IC50 values were determined using Prism software (GraphPad Software, San Diego, CA).

KRAS G12V = KRAS G12V (Homo sapiens, UniProt P01116, G12V); assay: biochemical
KRAS G12D = KRAS G12D (Homo sapiens, UniProt P01116, G12D); assay: biochemical
AGS (G12D) = assay: Cell proliferation assay (CellTiter-Glo, 72 hours), AGS; assay type: cell-based; settings: 72 h, 384-well, CellTiter-Glo 2.0
Description: as §1

SW620 (KRAS G12V) = assay: Cell proliferation assay (CellTiter-Glo, 72 hours), SW620; assay type: cell-based; settings: Homo sapiens, SW-620, 72 h, 384-well, CellTiter-Glo 2.0
Description: as §1

Sequence of KRAS G12D (P01116 1-188 isoform P01116-2 G12D): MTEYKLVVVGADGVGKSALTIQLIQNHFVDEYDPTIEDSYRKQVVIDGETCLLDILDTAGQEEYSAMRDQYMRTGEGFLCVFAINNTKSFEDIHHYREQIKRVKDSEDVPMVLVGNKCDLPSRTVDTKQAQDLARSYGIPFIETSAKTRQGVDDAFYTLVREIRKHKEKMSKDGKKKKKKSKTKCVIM
Sequence of KRAS G12V (P01116 1-188 isoform P01116-2 G12V): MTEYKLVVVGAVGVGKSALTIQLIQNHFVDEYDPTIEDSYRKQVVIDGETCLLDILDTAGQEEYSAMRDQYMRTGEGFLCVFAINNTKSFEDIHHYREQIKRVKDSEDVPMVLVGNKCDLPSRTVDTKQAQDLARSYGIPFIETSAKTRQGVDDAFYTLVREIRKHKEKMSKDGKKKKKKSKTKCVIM

C#Cc1c(F)ccc2cc(F)cc(-c3nc4c5c(nc(OC[C@@]67CCCN6C[C@H](F)C7)nc5c3F)N3CCCC[C@H]3CO4)c12 [Example 89, (7S)-12-(8-ethynyl-3,7-difluoro-1-naphthyl)-13-fluoro-16-[[(2R,8S)-2-fluoro-1,2,3,5,6,7-hexahydropyrrolizin-8-yl]methoxy]-9-oxa-2,11,15,17-tetrazatetracyclo[8.7.1.02,7.014,18]octadeca-1 (17),10 (18),11,13,15-pentaene]
IC50 (GP2D (KRAS G12D)): 1170 nM | IC50 (KRAS G12V): 4.2 nM | IC50 (KRAS G12D): 3.93 nM | IC50 (AGS (G12D)): > 3000 nM | IC50 (SW620 (KRAS G12V)): > 3000 nM

C#Cc1c(F)ccc2cc(O)cc(-c3nc4c5c(nc(OC[C@@]67CCCN6C[C@H](F)C7)nc5c3F)N(C)C3(CC3)CO4)c12 [Example 93]
IC50 (GP2D (KRAS G12D)): 140 nM | IC50 (KRAS G12V): 1.55 nM | IC50 (KRAS G12D): 1.99 nM | IC50 (AGS (G12D)): 560 nM | IC50 (SW620 (KRAS G12V)): 981 nM

C#Cc1c(F)ccc2cc(O)cc(-c3nc4c5c(nc(OC[C@@]67CCCN6C[C@H](F)C7)nc5c3F)N(C)[C@@H](CC)CO4)c12 [Example 96, 4-[(9S)-9-ethyl-4-fluoro-2-{[(2R,7aS)-2-fluorotetrahydro-1H-pyrrolizin-7a(5H)-yl]methoxy}-10-methyl-9,10-dihydro-8H-7-oxa-1,3,6,10-tetraazacyclohepta[1,2,3-de]naphthalen-5-yl]-5-ethynyl-6-fluoronaphthalen-2-ol]
IC50 (GP2D (KRAS G12D)): 16.8 nM | IC50 (KRAS G12V): 2.46 nM | IC50 (KRAS G12D): 2.39 nM | IC50 (AGS (G12D)): 82.9 nM | IC50 (SW620 (KRAS G12V)): 92.6 nM

CCc1c(F)ccc2cc(O)cc(-c3nc4c5c(nc(OC[C@@]67CCCN6C[C@H](F)C7)nc5c3F)N(C)[C@@H](CC)CO4)c12 [Example 99]
IC50 (GP2D (KRAS G12D)): 22.4 nM | IC50 (KRAS G12V): 1.02 nM | IC50 (KRAS G12D): 0.85 nM | IC50 (AGS (G12D)): 86.3 nM | IC50 (SW620 (KRAS G12V)): 96.8 nM

C#Cc1c(F)ccc2cc(O)cc(-c3nc4c5c(nc(OC[C@@]67CCCN6C[C@H](F)C7)nc5c3F)N3CCCC(O4)C3CO)c12 (stereo partly shown) [Example 104]
IC50 (GP2D (KRAS G12D)): 188 nM | IC50 (KRAS G12V): 9.01 nM | IC50 (KRAS G12D): 7.51 nM | IC50 (AGS (G12D)): 666 nM | IC50 (SW620 (KRAS G12V)): 903 nM

C#Cc1c(F)ccc2cc(O)cc(-c3nc4c5c(nc(OC[C@@]67CCCN6C[C@H](F)C7)nc5c3F)N3CC=CC[C@H]3CO4)c12 [Example 106, 5-ethynyl-6-fluoro-4-[(7S)-13-fluoro-16-[[(2R,8S)-2-fluoro-1,2,3,5,6,7-hexahydropyrrolizin-8-yl]methoxy]-9-oxa-2,11,15,17-tetrazatetracyclo [8.7.1.0^2,7.0^14,18]octadeca-1 (17),4,10 (18),11,13,15-hexaen-12-yl]naphthalen-2-ol]
IC50 (GP2D (KRAS G12D)): 14.6 nM | IC50 (KRAS G12V): 3.83 nM | IC50 (KRAS G12D): 3.26 nM | IC50 (AGS (G12D)): 48.8 nM | IC50 (SW620 (KRAS G12V)): 64.5 nM

C#Cc1c(F)ccc2cc(O)cc(-c3nc4c5c(nc(OC[C@@]67CCCN6C[C@H](F)C7)nc5c3F)N3CC(C#N)CCC3CO4)c12 (stereo partly drawn) [Example 109, 5-(8-ethynyl-7-fluoro-3-hydroxynaphthalen-1-yl)-4-fluoro-2-{[(2R,7aS)-2-fluorotetrahydro-1H-pyrrolizin-7a(5H)-yl]methoxy}-8,8a,9,10,11,12-hexahydro-7-oxa-1,3,6,12a-tetraazabenzo[4,5]cyclohepta[1,2,3-de]naphthalene-11-carbonitrile]
IC50 (GP2D (KRAS G12D)): 2000 nM | IC50 (KRAS G12V): 27 nM | IC50 (KRAS G12D): 15.9 nM | IC50 (AGS (G12D)): > 3000 nM | IC50 (SW620 (KRAS G12V)): > 3000 nM

C#Cc1c(F)ccc2cc(O)cc(-c3nc4c5c(nc(OC[C@@]67CCCN6C[C@H](F)C7)nc5c3F)N3CC(C(N)=O)CCC3CO4)c12 (stereo partly drawn) [Example 110, 5-(8-ethynyl-7-fluoro-3-hydroxynaphthalen-1-yl)-4-fluoro-2-{[(2R,7aS)-2-fluorotetrahydro-1H-pyrrolizin-7a(5H)-yl]methoxy}-8,8a,9,10,11,12-hexahydro-7-oxa-1,3,6,12a-tetraazabenzo[4,5]cyclohepta[1,2,3-de]naphthalene-11-carboxamide]
IC50 (GP2D (KRAS G12D)): > 3000 nM | IC50 (KRAS G12V): > 10000 nM | IC50 (KRAS G12D): > 10000 nM | IC50 (AGS (G12D)): > 3000 nM | IC50 (SW620 (KRAS G12V)): > 3000 nM

CC[C@H]1COc2nc(-c3cc(O)cc4ccc(F)c(Cl)c34)c(F)c3nc(OC[C@@]45CCCN4C[C@H](F)C5)nc(c23)N1C [Example 111, 5-chloro-4-[(9S)-9-ethyl-4-fluoro-2-{[(2R,7aS)-2-fluorotetrahydro-1H-pyrrolizin-7a(5H)-yl]methoxy}-10-methyl-9,10-dihydro-8H-7-oxa-1,3,6,10-tetraazacyclohepta[1,2,3-de]naphthalen-5-yl]-6-fluoronaphthalen-2-ol]
IC50 (GP2D (KRAS G12D)): 59.7 nM | IC50 (KRAS G12V): 1.41 nM | IC50 (KRAS G12D): 1.28 nM | IC50 (AGS (G12D)): 361 nM | IC50 (SW620 (KRAS G12V)): 499 nM

C#Cc1c(F)ccc2cc(O)cc(-c3nc4c5c(nc(OC[C@@]67CCCN6C[C@H](F)C7)nc5c3F)N3C[C@H](C#N)CC[C@H]3CO4)c12 [Example 118, (5aS,8R)-2-(8-ethynyl-7-fluoro-3-hydroxynaphthalen-1-yl)-1-fluoro-11-(((2R,7aS)-2-fluorotetrahydro-1H-pyrrolizin-7a(5H)-yl)methoxy)-5,5a,6,7,8,9-hexahydro-4-oxa-3,9a,10,12-tetraazabenzo[4,5]cyclohepta[1,2,3-de]naphthalene-8-carbonitrile]
IC50 (GP2D (KRAS G12D)): > 3000 nM | IC50 (KRAS G12V): 58.9 nM | IC50 (KRAS G12D): 52.5 nM | IC50 (AGS (G12D)): > 3000 nM | IC50 (SW620 (KRAS G12V)): > 3000 nM

CCc1c(F)ccc2cc(O)cc(-c3nc4c5c(nc(OC[C@@]67CCCN6C[C@H](F)C7)nc5c3F)N3CCCC(O)C3CO4)c12 (stereo partly drawn) [Example 119, 5-(8-ethyl-7-fluoro-3-hydroxynaphthalen-1-yl)-4-fluoro-2-{[(2R,7aS)-2-fluorotetrahydro-1H-pyrrolizin-7a(5H)-yl]methoxy}-8,8a,9,10,11,12-hexahydro-7-oxa-1,3,6,12a-tetraazabenzo[4,5]cyclohepta[1,2,3-de]naphthalen-9-ol]
IC50 (GP2D (KRAS G12D)): 103 nM | IC50 (KRAS G12V): 2.16 nM | IC50 (KRAS G12D): 2.48 nM | IC50 (AGS (G12D)): 258 nM | IC50 (SW620 (KRAS G12V)): 307 nM

C#Cc1c(F)ccc2cc(O)cc(-c3nc4c5c(nc(OC[C@@]67CCCN6C[C@H](F)C7)nc5c3F)N3CCCCC3CC4)c12 (stereo partly drawn) [Example 121, 5-ethynyl-6-fluoro-4-(4-fluoro-2-{[(2R,7aS)-2-fluorotetrahydro-1H-pyrrolizin-7a(5H)-yl]methoxy}-8,8a,9,10,11,12-hexahydro-7H-1,3,6,12a-tetraazabenzo[4,5]cyclohepta[1,2,3-de]naphthalen-5-yl)naphthalen-2-ol]
IC50 (GP2D (KRAS G12D)): 3.67 nM | IC50 (KRAS G12V): 1.99 nM | IC50 (KRAS G12D): 1.74 nM | IC50 (AGS (G12D)): 21.5 nM | IC50 (SW620 (KRAS G12V)): 16.6 nM

C#Cc1c(F)ccc2cc(O)cc(-c3nc4c5c(nc(OC[C@@]67CCCN6C[C@H](F)C7)nc5c3F)NCCC4)c12 [Example 122, 5-ethynyl-6-fluoro-4-(4-fluoro-2-{[(2R,7aS)-2-fluorotetrahydro-1H-pyrrolizin-7a(5H)-yl]methoxy}-7,8,9,10-tetrahydro-1,3,6,10-tetraazacyclohepta[1,2,3-de]naphthalen-5-yl)naphthalen-2-ol]
IC50 (GP2D (KRAS G12D)): 2410 nM | IC50 (KRAS G12V): 16.9 nM | IC50 (KRAS G12D): 14.8 nM | IC50 (AGS (G12D)): 5490 nM | IC50 (SW620 (KRAS G12V)): 4900 nM

C#Cc1c(F)ccc2cc(O)cc(-c3nc4c5c(nc(OC[C@@]67CCCN6C[C@H](F)C7)nc5c3F)N[C@@H](C3CCCO3)CO4)c12 (stereo partly drawn) [Example 126, 5-ethynyl-6-fluoro-4-((9R)-4-fluoro-2-(((2R,7aS)-2-fluorotetrahydro-1H-pyrrolizin-7a(5H)-yl)methoxy)-9-(tetrahydrofuran-2-yl)-9,10-dihydro-8H-7-oxa-1,3,6,10-tetraazacyclohepta[de]naphthalen-5-yl)naphthalen-2-ol]
IC50 (GP2D (KRAS G12D)): > 3000 nM | IC50 (KRAS G12V): 30.2 nM | IC50 (KRAS G12D): 111 nM | IC50 (AGS (G12D)): > 3000 nM | IC50 (SW620 (KRAS G12V)): 109 nM

C#Cc1c(F)ccc2cc(O)cc(-c3nc4c5c(nc(OC[C@@]67CCCN6C[C@H](F)C7)nc5c3F)N(CC)[C@@H](C)CO4)c12 [Example 127, 4-[(9S)-10-ethyl-4-fluoro-2-{[(2R,7aS)-2-fluorotetrahydro-1H-pyrrolizin-7a(5H)-yl]methoxy}-9-methyl-9,10-dihydro-8H-7-oxa-1,3,6,10-tetraazacyclohepta[1,2,3-de]naphthalen-5-yl]-5-ethynyl-6-fluoronaphthalen-2-ol]
IC50 (GP2D (KRAS G12D)): 4.54 nM | IC50 (KRAS G12V): 3.2 nM | IC50 (KRAS G12D): 2.61 nM | IC50 (AGS (G12D)): 8.8 nM | IC50 (SW620 (KRAS G12V)): 9.86 nM

C#Cc1c(F)ccc2cc(O)cc(-c3nc4c5c(nc(OC[C@@]67CCCN6C[C@H](F)C7)nc5c3F)N3CCC[C@@H](O)[C@H]3CO4)c12 [compound 25, (8aR,9R)-5-(8-ethynyl-7-fluoro-3-hydroxynaphthalen-1-yl)-4-fluoro-2-{[(2R,7aS)-2-fluorotetrahydro-1H-pyrrolizin-7a(5H)-yl]methoxy}-8,8a,9,10,11,12-hexahydro-7-oxa-1,3,6,12a-tetraazabenzo[4,5]cyclohepta[1,2,3-de]naphthalen-9-ol]
IC50 (GP2D (KRAS G12D)): 76.4 nM | IC50 (KRAS G12V): 2.16 nM | IC50 (KRAS G12D): 2.03 nM | IC50 (AGS (G12D)): 166 nM | IC50 (SW620 (KRAS G12V)): 654 nM

C#Cc1c(F)ccc2cc(O)cc(-c3nc4c5c(nc(OC[C@@]67CCCN6C[C@H](F)C7)nc5c3F)N3CCC[C@H](O)[C@@H]3CO4)c12 [compound 103, (8aS,9S)-5-(8-ethynyl-7-fluoro-3-hydroxynaphthalen-1-yl)-4-fluoro-2-{[(2R,7aS)-2-fluorotetrahydro-1H-pyrrolizin-7a(5H)-yl]methoxy}-8,8a,9,10,11,12-hexahydro-7-oxa-1,3,6,12a-tetraazabenzo[4,5]cyclohepta[1,2,3-de]naphthalen-9-ol]
IC50 (GP2D (KRAS G12D)): 580 nM | IC50 (KRAS G12V): 15.9 nM | IC50 (KRAS G12D): 22.4 nM | IC50 (AGS (G12D)): 924 nM | IC50 (SW620 (KRAS G12V)): > 3000 nM
